Drawing on the supplement of paper PMC10307832, this text covers relative viability for one cell line.

Common to all, as to assay: relative viability (nuclei count vs DMSO), 5 days (fraction); higher = more cells survive
Compound in experiment [1]: Nc1nc(Nc2ccc3c(c2)CC[C@@H](N2CCCC2)CC3)nn1-c1cc2c(nn1)-c1ccccc1CCC2 [Bemcentinib] + CC(=O)c1c(C)c2cnc(Nc3ccc(N4CCNCC4)cn3)nc2n(C2CCCC2)c1=O [Palbociclib] (partner 0.5 µM)
The essentials: (§1)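 Dosing by pin tool came one day after lung cancer cell lines were seeded in 1536-well plates, using either one drug or a fixed anchor-drug dose plus five library-drug doses (not always all listed) in √10 steps. After 5 days, nuclei were counted on 4× images. Relative viability is treated-well nuclei count divided by vehicle-well nuclei count, and values are medians of duplicate plates.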

Compound in experiment [2]: CC1=CC=C(C=C1)C(=O)CN2C3=C(CCCC3)SC2=N [Pifithrin_alpha] + Nc1nc2[nH]cc(CCc3ccc(C(=O)N[C@@H](CCC(=O)O)C(=O)O)cc3)c2c(=O)[nH]1 [Pemetrexed] (partner 0.2 µM)
The essentials:
as §1

Compound in the experiment “Bemcentinib + Phenformin”: Nc1nc(Nc2ccc3c(c2)CC[C@@H](N2CCCC2)CC3)nn1-c1cc2c(nn1)-c1ccccc1CCC2 [Bemcentinib] + N=C(N)NC(=N)NCCc1ccccc1 [Phenformin] (partner 250 µM)
The essentials: as §1

Compound in the experiment “Bemcentinib + Pemetrexed”: Nc1nc(Nc2ccc3c(c2)CC[C@@H](N2CCCC2)CC3)nn1-c1cc2c(nn1)-c1ccccc1CCC2 [Bemcentinib] + Nc1nc2[nH]cc(CCc3ccc(C(=O)N[C@@H](CCC(=O)O)C(=O)O)cc3)c2c(=O)[nH]1 [Pemetrexed] (partner 0.2 µM)
A digest of the protocol:
as §1

For NCI-H650, the relative viability was found to be 0.337 in experiment [1] (first compound 0.04 µM); 0.298 in experiment [1] (first compound 0.1265 µM); 0.338 in experiment [1] (first compound 0.4 µM); 0.333 in experiment [1] (first compound 1.265 µM); 0.298 in experiment [1] (first compound 4 µM); 0.938 in experiment [2] (first compound 3.162 µM). The relative viability in experiment [2] (first compound 10 µM) came out at 0.967; in experiment [2] (first compound 31.62 µM), 0.831; in experiment [2] (first compound 100 µM), 0.789; with Bemcentinib + Phenformin (first compound 0.04 µM), 0.407; with Bemcentinib + Phenformin (first compound 0.1265 µM), 0.487; in the experiment with Bemcentinib + Phenformin (first compound 0.4 µM), 0.484. Also, the relative viability turned out to be 0.429 in the experiment with Bemcentinib + Phenformin (first compound 1.265 µM); 0.415 with Bemcentinib + Phenformin (first compound 4 µM); 0.843 with Bemcentinib + Pemetrexed (first compound 0.04 µM); 1.06 in the experiment with Bemcentinib + Pemetrexed (first compound 0.1265 µM); 1.09 in the experiment with Bemcentinib + Pemetrexed (first compound 0.4 µM); 0.941 with Bemcentinib + Pemetrexed (first compound 1.265 µM). The relative viability in the experiment with Bemcentinib + Pemetrexed (first compound 4 µM) amounted to 1.01.
